SMILES strings stand for the structures.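 The compound was tested at five concentrations on cells cultured in 96-well plates, with a 48-hour exposure period. TGI: total growth inhibition.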

Data on eleven molecules can be found in PubChem BioAssay (NCI).

Test systems include SK-MEL-5 melanoma; UACC-257 melanoma; SK-MEL-2 melanoma; UO-31 renal; HCC-2998 colon; MDA-N; HCT-116 colon; SF-268 CNS; SN12C renal; MALME-3M melanoma.
Holding throughout (experiment): NCI tumour cell line growth inhibition, 48 h

As to `Cc1ccc(/C=C2\Cc3c(C)cc(C)cc3C2=O)c(C(=O)O)c1`, the TGI in the assay with SK-MEL-5 melanoma is 85.2 µM; in the assay on UACC-257 melanoma, over 100 µM; with SK-MEL-2 melanoma, 83.6 µM; in the assay with UO-31 renal, over 100 µM; in the assay on HCC-2998 colon it was 98.6 µM; in the assay on MDA-N it was over 100 µM. Also, the TGI in the assay on HCT-116 colon, in the assay on SF-268 CNS, in the assay on SN12C renal and in the assay on MALME-3M melanoma was over 100 µM each time.

Take `COC(=O)/C(C#N)=C(/NCCN)Nc1ccccc1`: the TGI in the assay with SK-MEL-5 melanoma, in the assay on UACC-257 melanoma, with SK-MEL-2 melanoma, in the assay with UO-31 renal, in the assay on HCC-2998 colon and in the assay with MDA-N was over 100 µM each time. Also, the TGI with HCT-116 colon, in the assay with SF-268 CNS, in the assay with SN12C renal and with MALME-3M melanoma was over 100 µM in each case.

In the case of `N#Cc1nc(C2CCC2)oc1N`, the TGI with SK-MEL-5 melanoma, in the assay with UACC-257 melanoma, in the assay on SK-MEL-2 melanoma, in the assay with UO-31 renal, with HCC-2998 colon and in the assay on MDA-N was over 100 µM in each case. Also, the TGI in the assay on HCT-116 colon, in the assay on SF-268 CNS, in the assay with SN12C renal and in the assay with MALME-3M melanoma was over 100 µM in each case.

With `COc1ccc(COCC[C@H](C)OC2OC(CO[Si](C)(C)C(C)(C)C)C(OC(=O)CCCN=[N+]=[N-])C(OC(=O)CCCN=[N+]=[N-])C2OC(=O)CCCN=[N+]=[N-])cc1` (stereo not given in full), the TGI in the assay on SK-MEL-5 melanoma is 25.4 µM; with UACC-257 melanoma, over 100 µM; with SK-MEL-2 melanoma, over 100 µM; in the assay on UO-31 renal, 66.2 µM; in the assay with HCC-2998 colon, over 100 µM; in the assay with MDA-N, over 100 µM. For the same molecule, the TGI in the assay with HCT-116 colon, in the assay with SF-268 CNS, in the assay with SN12C renal and in the assay with MALME-3M melanoma was over 100 µM each time.

For the molecule `COc1ccc(N(C(=O)Nc2ccc(Cl)c(Cl)c2)C2c3cccn3C(=O)N2c2ccc(Cl)c(Cl)c2)cc1` (stereo not given), the TGI with SK-MEL-5 melanoma, in the assay with UACC-257 melanoma, in the assay with SK-MEL-2 melanoma, in the assay with UO-31 renal, in the assay with HCC-2998 colon and with MDA-N was over 100 µM in each case. The TGI in the assay on HCT-116 colon, with SF-268 CNS, in the assay on SN12C renal and in the assay on MALME-3M melanoma was over 100 µM throughout.

In the case of `O=[N+]([O-])c1ccc2c(c1)C1=NN(c3ccccc3)C(c3ccccc3Br)C1CCC2` (stereo not given), the TGI with SK-MEL-5 melanoma, in the assay on UACC-257 melanoma, in the assay on SK-MEL-2 melanoma, with UO-31 renal, in the assay with HCC-2998 colon and in the assay with MDA-N was over 50 µM in each case. Moreover, the TGI in the assay on HCT-116 colon, with SF-268 CNS, with SN12C renal and in the assay with MALME-3M melanoma was over 50 µM each time.

Take `COc1cc(/C=C/C=C2\CC/C(=C\C=C\c3ccc(O)c(OC)c3)C2=O)ccc1O`: the TGI in the assay with SK-MEL-5 melanoma, with UACC-257 melanoma, with SK-MEL-2 melanoma, in the assay on UO-31 renal, in the assay on HCC-2998 colon and with MDA-N was over 100 µM in each case. Also, the TGI in the assay with HCT-116 colon, in the assay with SF-268 CNS, in the assay on SN12C renal and in the assay with MALME-3M melanoma was over 100 µM each time.

With `COc1cc2c(cc1Cc1c(F)cccc1Cl)nc(-c1c(F)cccc1Cl)n2Cc1c(F)cccc1Cl`, the TGI is over 100 µM in the assay with SK-MEL-5 melanoma; over 100 µM in the assay with UACC-257 melanoma; 47.5 µM in the assay with SK-MEL-2 melanoma; over 100 µM in the assay with UO-31 renal; 76.7 µM in the assay with HCC-2998 colon; over 100 µM in the assay with MDA-N. In addition, the TGI in the assay on HCT-116 colon is over 100 µM; in the assay with SF-268 CNS, over 100 µM; with SN12C renal, over 100 µM; with MALME-3M melanoma, 79.9 µM.

With `CC(C)OC(=O)OCSc1ccccc1N=Cc1cccc([N+](=O)[O-])c1`, the TGI with SK-MEL-5 melanoma, with UACC-257 melanoma, in the assay with SK-MEL-2 melanoma, in the assay on UO-31 renal, in the assay with HCC-2998 colon and in the assay with MDA-N was over 10 µM in each case. For the same molecule, the TGI in the assay on HCT-116 colon, in the assay with SF-268 CNS, in the assay on SN12C renal and in the assay with MALME-3M melanoma was over 10 µM in each case.

For the molecule `CSc1n[nH]c(N)c1C(=O)Nc1ccccc1`, the TGI with SK-MEL-5 melanoma, in the assay with UACC-257 melanoma, in the assay on SK-MEL-2 melanoma, in the assay with UO-31 renal, in the assay on HCC-2998 colon and in the assay with MDA-N was over 100 µM in each case. The TGI in the assay with HCT-116 colon, with SF-268 CNS, with SN12C renal and in the assay with MALME-3M melanoma was over 100 µM each time.

Turning to `Cc1cnc2c(c1)C(=O)C1=C(C2=O)C2OC(=O)CC2OC1(C)C` (stereo not given), the TGI was determined as 0.997 µM in the assay on SK-MEL-5 melanoma; 0.469 µM in the assay on UACC-257 melanoma; 2.76 µM with SK-MEL-2 melanoma; 1.26 µM in the assay on UO-31 renal; 0.822 µM in the assay with HCC-2998 colon; 0.865 µM with MDA-N. Moreover, the TGI is 0.399 µM with HCT-116 colon, 0.623 µM in the assay with SF-268 CNS, 0.318 µM in the assay on SN12C renal and 0.191 µM with MALME-3M melanoma.
